The experiment has as its target recombinant PI3K δ enzyme (Homo sapiens (Human), UniProt O00329). Put plainly: In vitro enzyme assay (Kinase-Glo luminescent kinase assay), PI3Kδ. Type of experiment: biochemical. As to the method: The Kinase-Glo luminescent kinase assay kit (from Promega) was used to measure kinase activity. In this assay, amount of ATP remaining in solution following a kinase reaction is measured. The effect of compounds on PI3Kδ inhibition was carried out by adding 2.29 μg/ml of recombinant PI3K δ enzyme (Proteros, Germany) to reaction mixture containing assay buffer (50 mM HEPES, pH 7.4, 50 mM NaCl, 0.05% CHAPS) supplemented with 10 mM MgCl2, 5 mM DTT, 60 μM Phosphatidyl inositol bisphosphate (PIP2) and 10 μM ATP in the absence or presence of different concentrations of the compounds in a final volume of 15 μl/well, in a 384 well plate. The reaction mixture was incubated for 2 hours at room temperature. At the end of incubation period the equal volume of Kinase-Glo plus (Promega, V3772), was added per well and the luminescence was measured after incubating for 10 minutes at room temperature in dark. Results were calculated by measuring the luminescence units of test samples to blanks containing no enzyme.
The compounds of the present invention were tested for their selectivity for PI3Kδ over PI3Kα, PI3Kβ and PI3Kγ following the above assay using specific recombinant enzymes (Proteros, Germany) for each kinase. Assay condition of kinase assay (PI3Kα, PI3Kβ, PI3Kγ and PI3Kδ) was as follows. Enzyme: 2.29 μg/mL; ATP: 10 μM; PIP2 substrate: 60 μM and Reaction Time: 2 hours.

The results in this text go back to US10174035B2, “6-morpholinyl-2-pyrazolyl-9H-purine derivatives and their use as PI3K inhibitors” (Daiichi Sankyo Company, Limited, priority 2015, dated 2019).

In general, IC50 refers to the point on the concentration scale where inhibition reaches its midpoint.

Chain of recombinant PI3K δ enzyme (O00329 whole entry, species assumed): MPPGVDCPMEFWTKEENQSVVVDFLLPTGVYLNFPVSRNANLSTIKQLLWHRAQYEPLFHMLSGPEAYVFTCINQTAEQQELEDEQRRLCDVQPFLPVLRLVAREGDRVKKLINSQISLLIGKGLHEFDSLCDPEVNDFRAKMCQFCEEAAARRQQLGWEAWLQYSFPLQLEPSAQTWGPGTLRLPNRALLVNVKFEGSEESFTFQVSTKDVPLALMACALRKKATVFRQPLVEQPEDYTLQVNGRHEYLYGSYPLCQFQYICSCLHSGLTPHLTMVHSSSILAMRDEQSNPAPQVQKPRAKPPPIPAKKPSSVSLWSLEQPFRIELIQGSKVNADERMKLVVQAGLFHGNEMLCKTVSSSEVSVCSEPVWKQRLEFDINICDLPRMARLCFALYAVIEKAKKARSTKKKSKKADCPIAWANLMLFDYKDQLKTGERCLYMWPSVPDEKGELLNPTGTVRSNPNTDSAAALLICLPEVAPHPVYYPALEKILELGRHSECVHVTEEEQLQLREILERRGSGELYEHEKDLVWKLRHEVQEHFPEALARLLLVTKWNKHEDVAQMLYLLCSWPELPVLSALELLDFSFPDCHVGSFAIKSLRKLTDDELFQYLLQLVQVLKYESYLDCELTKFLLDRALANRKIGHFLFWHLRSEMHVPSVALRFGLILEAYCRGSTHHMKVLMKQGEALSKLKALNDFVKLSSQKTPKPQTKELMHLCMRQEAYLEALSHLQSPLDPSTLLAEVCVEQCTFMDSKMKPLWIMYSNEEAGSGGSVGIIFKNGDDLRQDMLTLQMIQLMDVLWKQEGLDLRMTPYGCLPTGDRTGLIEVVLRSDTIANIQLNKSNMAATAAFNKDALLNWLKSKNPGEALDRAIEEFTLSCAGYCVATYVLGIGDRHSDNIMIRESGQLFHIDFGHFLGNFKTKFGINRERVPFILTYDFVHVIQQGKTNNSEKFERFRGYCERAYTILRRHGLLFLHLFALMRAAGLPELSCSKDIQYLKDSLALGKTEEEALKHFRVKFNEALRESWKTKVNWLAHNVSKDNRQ
Chain of recombinant PI3K δ enzyme (P27986 whole entry partner, species assumed): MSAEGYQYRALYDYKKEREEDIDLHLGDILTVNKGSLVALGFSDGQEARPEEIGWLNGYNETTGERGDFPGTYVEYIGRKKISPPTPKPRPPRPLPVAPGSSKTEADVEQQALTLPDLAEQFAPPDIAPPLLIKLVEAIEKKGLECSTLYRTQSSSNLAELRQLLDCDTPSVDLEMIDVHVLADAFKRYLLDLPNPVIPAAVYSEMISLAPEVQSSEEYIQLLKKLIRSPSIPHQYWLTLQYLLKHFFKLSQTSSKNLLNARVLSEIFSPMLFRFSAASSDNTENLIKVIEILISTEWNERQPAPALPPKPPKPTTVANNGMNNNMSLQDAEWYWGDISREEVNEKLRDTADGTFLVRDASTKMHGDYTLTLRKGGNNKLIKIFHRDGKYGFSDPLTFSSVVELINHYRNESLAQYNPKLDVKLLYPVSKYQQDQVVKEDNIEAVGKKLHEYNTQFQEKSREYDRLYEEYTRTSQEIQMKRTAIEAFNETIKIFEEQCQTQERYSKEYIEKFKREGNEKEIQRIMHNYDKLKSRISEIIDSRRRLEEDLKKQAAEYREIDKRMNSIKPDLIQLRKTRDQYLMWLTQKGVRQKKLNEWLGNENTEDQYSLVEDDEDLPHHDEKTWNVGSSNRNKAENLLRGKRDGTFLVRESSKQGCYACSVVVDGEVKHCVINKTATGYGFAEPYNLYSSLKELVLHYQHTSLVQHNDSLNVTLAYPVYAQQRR

`CN(C)C1CCN(C(=O)c2nc3c(N4CCOCC4)cc(-c4cnn(C)c4)nc3[nH]2)CC1` [compound 101, [4-(Dimethylamino)piperidin-1-yl][5-(1-methyl-1H-pyrazol-4-yl)-7-(morpholin-4-yl)-3H-imidazo[4,5-b]pyridin-2-yl]methanone]: the IC50 came out at 41 nM.

On to `Cn1cc(-c2nc(N3CCOCC3)c3nc(C(=O)N4CCN(C(=O)Cc5cnccn5)CC4)[nH]c3n2)cn1` [compound 29, 1-(4-{[2-(1-Methyl-1H-pyrazol-4-yl)-6-(morpholin-4-yl)-9H-purin-8-yl]carbonyl}piperazin-1-yl)-2-(pyrazin-2-yl)ethanone], for which the IC50 came out at 140 nM.

In the case of `Cn1cc(-c2cc(N3CCOCC3)c3nc(C(=O)NCCCN4CCOCC4)[nH]c3n2)cn1` [compound 115, 5-(1-Methyl-1H-pyrazol-4-yl)-7-(morpholin-4-yl)-N-[3-(morpholin-4-yl)propyl]-3H-imidazo[4,5-b]pyridine-2-carboxamide], the IC50 was determined as 16 nM.

As for `Cn1cc(-c2nc3[nH]c(C(=O)N4CCN5C(=O)COC[C@H]5C4)nc3c(N3CCOCC3)c2F)cn1` [compound 80, (9aR)-8-{[6-Fluoro-5-(1-methyl-1H-pyrazol-4-yl)-7-(morpholin-4-yl)-3H-imidazo[4,5-b]pyridin-2-yl]carbonyl}hexahydropyrazino[2,1-c][1,4]oxazin-4(3H)-one], the IC50 came out at 194 nM.

In the case of `O=C(c1nc2c(N3CCOCC3)cc(-c3c[nH]nc3C(F)(F)F)nc2[nH]1)N1CCC(N2CCOCC2)CC1` [compound 134, [4-(Morpholin-4-yl)piperidin-1-yl]{7-(morpholin-4-yl)-5-[3-(trifluoromethyl)-1H-pyrazol-4-yl]-3H-imidazo[4,5-b]pyridin-2-yl}methanone], the IC50 stood at 3 nM.

`CCn1c(C(=O)N2CCC(N(C)C)CC2)nc2c(N3CCOCC3)nc(-c3cnn(C)c3)nc21` [compound 21, [4-(Dimethylamino)piperidin-1-yl][9-ethyl-2-(1-methyl-1H-pyrazol-4-yl)-6-(morpholin-4-yl)-9H-purin-8-yl]methanone]: the IC50 amounted to 313 nM.

`Cc1nn(C)cc1-c1cc(N2CCOCC2)c2nc(C(=O)N3CCC(N4CCOCC4)CC3)n(C)c2n1` [compound 104, [5-(1,3-Dimethyl-1H-pyrazol-4-yl)-3-methyl-7-(morpholin-4-yl)-3H-imidazo[4,5-b]pyridin-2-yl][4-(morpholin-4-yl)piperidin-1-yl]methanone]: the IC50 was 22 nM.

Turning to `Cn1cc(-c2nc3[nH]c(C(=O)NCCCN4CCOCC4)nc3c(N3CCOCC3)c2F)cn1` [compound 124, 6-Fluoro-5-(1-methyl-1H-pyrazol-4-yl)-7-(morpholin-4-yl)-N-[3-(morpholin-4-yl)propyl]-3H-imidazo[4,5-b]pyridine-2-carboxamide], the IC50 worked out at 17 nM.

With `Cc1nn(C)cc1-c1nc2c(nc(C(=O)N3CCC(N4C[C@@H](C)O[C@@H](C)C4)CC3)n2C)c(N2CCOCC2)c1F` [compound 112, {4-[cis-2,6-Dimethylmorpholin-4-yl]piperidin-1-yl}[5-(1,3-dimethyl-1H-pyrazol-4-yl)-6-fluoro-3-methyl-7-(morpholin-4-yl)-3H-imidazo[4,5-b]pyridin-2-yl]methanone], the IC50 was 15 nM.

On to `Cn1cc(-c2nc(N3CCOCC3)c3nc(C(=O)N4CCC(NS(C)(=O)=O)CC4)[nH]c3n2)cn1` [compound 28, N-(1-{[2-(1-methyl-1H-pyrazol-4-yl)-6-(morpholin-4-yl)-9H-purin-8-yl]carbonyl}piperidin-4-yl)methanesulfonamide], for which the IC50 came to 69 nM.

Turning to `Cn1cc(-c2nc(N3CCOCC3)c3nc(C(=O)N4CCC(N5CCOCC5)CC4)n(C)c3n2)cn1` [compound 23, [9-Methyl-2-(1-methyl-1H-pyrazol-4-yl)-6-(morpholin-4-yl)-9H-purin-8-yl][4-(morpholin-4-yl)piperidin-1-yl]methanone], the IC50 was found to be 198 nM.

Regarding `CN1CCN(C2CN(C(=O)c3nc4c(N5CCOCC5)cc(-c5cnn(C)c5)nc4[nH]3)C2)CC1=O` [Compound No. 129, 1-Methyl-4-(1-{[5-(1-methyl-1H-pyrazol-4-yl)-7-(morpholin-4-yl)-3H-imidazo[4,5-b]pyridin-2-yl]carbonyl}azetidin-3-yl)piperazin-2-one], the IC50 was 10 nM.

With `Cn1cc(-c2nc(N3CCOCC3)c3nc(C(=O)N4CC[C@@H](NS(C)(=O)=O)C4)[nH]c3n2)cn1` [compound 38, N-[(3R)-1-{[2-(1-methyl-1H-pyrazol-4-yl)-6-(morpholin-4-yl)-9H-purin-8-yl]carbonyl}pyrrolidin-3-yl]methanesulfonamide], the concentration for half-maximal inhibition (IC50) is 20 nM.

Regarding `Cc1nn(C)cc1-c1nc(N2CCOCC2)c2nc(C(=O)NCC3(CO)COC3)[nH]c2n1` [compound 71, 2-(1,3-Dimethyl-1H-pyrazol-4-yl)-N-{[3-(hydroxymethyl)oxetan-3-yl]methyl}-6-(morpholin-4-yl)-9H-purine-8-carboxamide], the IC50 is 30 nM.

Regarding `Cn1cc(-c2nc(N3CCOCC3)c3nc(C(=O)NCCCN4CCCC4=O)n(C)c3n2)cn1` [compound 73, 9-Methyl-2-(1-methyl-1H-pyrazol-4-yl)-6-(morpholin-4-yl)-N-[3-(2-oxopyrrolidin-1-yl)propyl]-9H-purine-8-carboxamide], the IC50 amounted to 60 nM.

Take `Cn1cc(-c2nc(N3CCOCC3)c3nc(C(=O)NC4CCN(Cc5ccccc5)CC4)[nH]c3n2)cn1` [compound 49, N-(1-Benzylpiperidin-4-yl)-2-(1-methyl-1H-pyrazol-4-yl)-6-(morpholin-4-yl)-9H-purine-8-carboxamide]: the IC50 is 62 nM.

As for `Cn1cc(-c2nc(N3CCOCC3)c3nc(C(=O)N4CC[C@H](O)C4)[nH]c3n2)cn1` [compound 62, [(3S)-3-Hydroxypyrrolidin-1-yl][2-(1-methyl-1H-pyrazol-4-yl)-6-(morpholin-4-yl)-9H-purin-8-yl]methanone], the IC50 was 61 nM.

For `Cn1cc(-c2nc3[nH]c(C(=O)N4CCN(C5CCOCC5)CC4)nc3c(N3CCOCC3)c2F)cn1` [compound 81, [6-Fluoro-5-(1-methyl-1H-pyrazol-4-yl)-7-(morpholin-4-yl)-3H-imidazo[4,5-b]pyridin-2-yl][4-(tetrahydro-2H-pyran-4-yl)piperazin-1-yl]methanone], the IC50 was determined as 7 nM.

Regarding `CN(C(=O)c1nc2c(N3CCOCC3)nc(-c3cnn(C)c3)nc2[nH]1)C1CCN(C2COC2)CC1` [compound 132, N-Methyl-2-(1-methyl-1H-pyrazol-4-yl)-6-(morpholin-4-yl)-N-[1-(oxetan-3-yl)piperidin-4-yl]-9H-purine-8-carboxamide], the IC50 stood at 240 nM.

For the molecule `CN(C)C1CCN(C(=O)c2nc3c(N4CCOCC4)nc(-c4cnn(C)c4)nc3[nH]2)CC1` [compound 57, [4-(Dimethylamino)piperidin-1-yl][2-(1-methyl-1H-pyrazol-4-yl)-6-(morpholin-4-yl)-9H-purin-8-yl]methanone], the IC50 came to 68 nM.

Turning to `Cn1cc(-c2nc(N3CCOCC3)c3nc(C(=O)N4CCS(=O)(=O)CC4)[nH]c3n2)cn1` [compound 15, (1,1-Dioxidothiomorpholin-4-yl)[2-(1-methyl-1H-pyrazol-4-yl)-6-(morpholin-4-yl)-9H-purin-8-yl]methanone], the IC50 stood at 123 nM.

For `CCn1c(C(=O)N2CCC(N3CCOCC3)CC2)nc2c(N3CCOCC3)nc(-c3cnn(C)c3)nc21` [compound 22, [9-Ethyl-2-(1-methyl-1-pyrazol-4-yl)-6-(morpholin-4-yl)-9H-purin-8-yl][4-(morpholin-4-yl)piperidin-1-yl]methanone], the IC50 is 368 nM.

For `C[C@@H]1CN(C2CN(C(=O)c3nc4c(N5CCOCC5)c(F)c(-c5cnn(C)c5)nc4[nH]3)C2)C[C@H](C)O1` [compound 127, {3-[(2R,6S)-2,6-dimethylmorpholin-4-yl]azetidin-1-yl}[6-fluoro-5-(1-methyl-1H-pyrazol-4-yl)-7-(morpholin-4-yl)-3H-imidazo[4,5-b]pyridin-2-yl]methanone], the IC50 was 36 nM.

With `Cn1cc(-c2nc(N3CCOCC3)c3nc(C(=O)N4CCNCC4)[nH]c3n2)cn1` [compound 20, [2-(1-Methyl-1H-pyrazol-4-yl)-6-(morpholin-4-yl)-9H-purin-8-yl](piperazin-1-yl)methanone], the IC50 worked out at 86 nM.

With `Cc1nn(C)cc1-c1nc2[nH]c(C(=O)N3CCC(N4CCOCC4)CC3)nc2c(N2CCOCC2)c1Cl` [compound 91, [6-Chloro-5-(1,3-dimethyl-1H-pyrazol-4-yl)-7-(morpholin-4-yl)-3H-imidazo[4,5-b]pyridin-2-yl][4-(morpholin-4-yl)piperidin-1-yl]methanone], the IC50 was 31 nM.

`CN(C(=O)c1nc2c(N3CCOCC3)cc(-c3cnn(C)c3)nc2[nH]1)C1CCN(C2COC2)CC1` [Compound No. 131, N-Methyl-5-(1-methyl-1H-pyrazol-4-yl)-7-(morpholin-4-yl)-N-[1-(oxetan-3-yl)piperidin-4-yl]-3H-imidazo[4,5-b]pyridine-2-carboxamide]: the IC50 came to 146 nM.

As to `C[C@@H]1CN(C2CN(C(=O)c3nc4c(N5CCOCC5)cc(-c5cnn(C)c5)nc4[nH]3)C2)C[C@H](C)O1` [Compound No. 119, {3-[(2R,6S)-2,6-dimethylmorpholin-4-yl]azetidin-1-yl}[5-(1-methyl-1H-pyrazol-4-yl)-7-(morpholin-4-yl)-3H-imidazo[4,5-b]pyridin-2-yl]methanone], the IC50 worked out at 5 nM.
